Measurements taken from patent publication US11072614B2, “Polymorphs of sepiapterin and salts thereof” (PTC Therapeutics MP, Inc., priority 2016, dated 2021).
Each block holds one compound with its values, some of them ahead of it.

Columns and labels:
Type in all cases: physicochemical
[1] = Storage stability of polymorphs, HPLC sepiapterin and impurity profile (Example 12); set-up: Impurity RRT 1.06 / Impurity RRT 1.08 / Impurity RRT 1.17 / Impurity RRT 1.21 / Impurity RRT 1.25 / Impurity RRT 0.62 / Impurity RRT 0.89 / Impurity RRT 0.95 / Impurity RRT 0.60: unit not given here; conditions: for stability compared with polymorph A (in words): storage at RT, 35° C., 50° C., 1 w and 4 w
Procedure: Samples of sepiapterin free base polymorph Forms D, F, and A were stored at room temperature (RT), 35° C., and 50° C. The samples were analyzed by HPLC at 1 week and 4 week intervals. The HPLC parameters were as follows: [table]

[2] = Physical form stability to grinding and sieving (XRD before and after)
Procedure: A sample of sepiapterin free base was obtained commercially. […] The sepiapterin sample contained particles with an average particle size over 100 μm. The XRD pattern was determined before and after grinding to reduce the particle size such that it passes through a 140 mesh screen. This polymorph of sepiapterin free base is referred to as Form A herein.

[3] = Storage stability study of solid forms, HPLC purity (Example 11)
Procedure: (§1) Form A and F samples were placed in chambers with silica gel to remove water (the relative humidity was measured to be ˜10% RH) at different temperatures. Form D samples were placed in chambers with water (relative humidity was estimated to be ˜100% RH) at different temperatures.
(§2) The HPLC purities and XRD patterns were obtained for each of Form A/F/D samples stored at various temperatures.

[4] = Storage stability study of solid forms, form change by XRD (Example 11)
Procedure: For X-ray powder diffraction analysis, a PANalytical Empyrean X-ray powder diffractometer was used. The parameters are as follows:
as §1, §2

[5] = 35° C., 100% RH, storage 1 week
[6] = 35° C., 100% RH, storage 4 weeks
[7] = 50° C., 100% RH, storage 1 week
[8] = 50° C., 100% RH, storage 4 weeks
[9] = 35° C./10% RH, 1 w, listed as Polymorph F
[10] = 35° C./10% RH, 4 w, listed as Polymorph F
[11] = 50° C./10% RH, 1 w, listed as Polymorph F
[12] = 50° C./10% RH, 4 w, listed as Polymorph F
[13] = RT/10% RH, 1 w, listed as Polymorph F
[14] = RT/10% RH, 4 w, listed as Polymorph F
[15] = 35° C., 10% RH, storage 4 weeks
[16] = 50° C., 10% RH, storage 4 weeks

Impurity RRT 0.62 ([1]; 35° C./100% RH, 1 w): <0.05
Impurity RRT 0.95 ([1]; 35° C./100% RH, 1 w): 0.86
Impurity RRT 1.08 ([1]; 35° C./100% RH, 1 w): 0.14
Impurity RRT 1.17 ([1]; 35° C./100% RH, 1 w): 0.17
Sepiapterin RRT 1.00 (amount of sepiapterin) ([1]; 35° C./100% RH, 1 w): 98.83%
Impurity RRT 0.62 ([1]; 35° C./100% RH, 4 w): 0.09
Impurity RRT 0.95 ([1]; 35° C./100% RH, 4 w): 1.04
Impurity RRT 1.08 ([1]; 35° C./100% RH, 4 w): <0.05
Impurity RRT 1.17 ([1]; 35° C./100% RH, 4 w): 0.17
Sepiapterin RRT 1.00 (amount of sepiapterin) ([1]; 35° C./100% RH, 4 w): 98.70%
Impurity RRT 0.62 ([1]; 50° C./100% RH, 1 w): 0.08
Impurity RRT 0.95 ([1]; 50° C./100% RH, 1 w): 1.05
Impurity RRT 1.08 ([1]; 50° C./100% RH, 1 w): 0.26
Impurity RRT 1.17 ([1]; 50° C./100% RH, 1 w): 0.16
Sepiapterin RRT 1.00 (amount of sepiapterin) ([1]; 50° C./100% RH, 1 w): 98.45%
Impurity RRT 0.62 ([1]; 50° C./100% RH, 4 w): 0.14
Impurity RRT 0.95 ([1]; 50° C./100% RH, 4 w): 2.03
Impurity RRT 1.08 ([1]; 50° C./100% RH, 4 w): <0.05
Impurity RRT 1.17 ([1]; 50° C./100% RH, 4 w): 0.18
Sepiapterin RRT 1.00 (amount of sepiapterin) ([1]; 50° C./100% RH, 4 w): 97.65%
Impurity RRT 1.08 ([1]; Initial): <0.05
Impurity RRT 1.17 ([1]; Initial): 0.17
Impurity RRT 0.62 ([1]; Initial, listed as Polymorph D): <0.05
Impurity RRT 0.95 ([1]; Initial, listed as Polymorph D): 0.69
Sepiapterin RRT 1.00 (amount of sepiapterin) ([1]; Initial, listed as Polymorph D): 99.14%
Sepiapterin RRT 1.00 (amount of sepiapterin) ([1]; Initial, listed as polymorph D): 99.14%
Impurity RRT 0.62 ([1]; RT/100% RH, 1 w): <0.05
Impurity RRT 0.95 ([1]; RT/100% RH, 1 w): 0.83
Impurity RRT 1.08 ([1]; RT/100% RH, 1 w): <0.05
Impurity RRT 1.17 ([1]; RT/100% RH, 1 w): 0.16
Sepiapterin RRT 1.00 (amount of sepiapterin) ([1]; RT/100% RH, 1 w): 99.01%
Impurity RRT 0.62 ([1]; RT/100% RH, 4 w): 0.09
Impurity RRT 0.95 ([1]; RT/100% RH, 4 w): 0.81
Impurity RRT 1.08 ([1]; RT/100% RH, 4 w): <0.05
Impurity RRT 1.17 ([1]; RT/100% RH, 4 w): 0.17
Sepiapterin RRT 1.00 (amount of sepiapterin) ([1]; RT/100% RH, 4 w): 98.92%
stability compared with polymorph A (in words) [1]: significantly greater stability
physical form stability to grinding and sieving [2]: potential instability
% of Initial [3, 5]: 99.7%
Purity (area %) [3, 5]: 98.8 area %
% of Initial [3, 6]: 99.6%
Purity (area %) [3, 6]: 98.7 area %
% of Initial [3, 7]: 99.3%
Purity (area %) [3, 7]: 98.5 area %
% of Initial [3, 8]: 98.5%
Purity (area %) [3, 8]: 97.7 area %
% of Initial ([3]; RT, 100% RH, storage 1 week): 99.9%
Purity (area %) ([3]; RT, 100% RH, storage 1 week): 99.0 area %
% of Initial ([3]; RT, 100% RH, storage 4 weeks): 99.8%
Purity (area %) ([3]; RT, 100% RH, storage 4 weeks): 98.9 area %
Form change [4, 5]: No
Form change [4, 6]: No
Form change [4, 7]: No
Form change [4, 8]: No
Form change ([4]; RT, 100% RH, storage 1 week): No
Form change ([4]; RT, 100% RH, storage 4 weeks): No
Compound: C[C@H](O)C(=O)C1=Nc2c(nc(N)[nH]c2=O)NC1 [Form D, sepiapterin]

Impurity RRT 0.60 ([1]; 35° C./10% RH, 1 w): <0.05
Impurity RRT 0.95 [1, 9]: 0.35
Impurity RRT 1.08 [1, 9]: 0.06
Impurity RRT 1.17 [1, 9]: 0.15
Sepiapterin RRT 1.00 (amount of sepiapterin) [1, 9]: 99.43%
Impurity RRT 0.60 ([1]; 35° C./10% RH, 4 w): <0.05
Impurity RRT 1.08 ([1]; 35° C./10% RH, 4 w): <0.05
Impurity RRT 0.95 [1, 10]: 0.42
Impurity RRT 1.17 [1, 10]: 0.15
Sepiapterin RRT 1.00 (amount of sepiapterin) [1, 10]: 99.43%
Impurity RRT 0.60 ([1]; 50° C./10% RH, 1 w): <0.05
Impurity RRT 0.95 [1, 11]: 0.58
Impurity RRT 1.08 [1, 11]: 0.11
Impurity RRT 1.17 [1, 11]: 0.15
Sepiapterin RRT 1.00 (amount of sepiapterin) [1, 11]: 99.15%
Impurity RRT 0.60 ([1]; 50° C./10% RH, 4 w): 0.12
Impurity RRT 1.17 ([1]; 50° C./10% RH, 4 w): 0.17
Impurity RRT 0.95 [1, 12]: 0.86
Impurity RRT 1.08 [1, 12]: <0.05
Sepiapterin RRT 1.00 (amount of sepiapterin) [1, 12]: 98.85%
Sepiapterin RRT 1.00 (amount of sepiapterin) ([1]; 50° C./10% RH, 4 w, listed as polymorph F): 98.85%
Impurity RRT 0.60 ([1]; Initial): <0.05
Impurity RRT 1.08 ([1]; Initial): <0.05
Impurity RRT 1.17 ([1]; Initial): 0.17
Impurity RRT 0.95 ([1]; Initial, listed as Polymorph F): 0.09
Sepiapterin RRT 1.00 (amount of sepiapterin) ([1]; Initial, listed as Polymorph F): 99.74%
Sepiapterin RRT 1.00 (amount of sepiapterin) ([1]; Initial, listed as polymorph F): 99.74%
Impurity RRT 0.60 ([1]; RT/10% RH, 1 w): <0.05
Impurity RRT 1.17 ([1]; RT/10% RH, 1 w): 0.16
Impurity RRT 0.95 [1, 13]: 0.29
Impurity RRT 1.08 [1, 13]: 0.14
Sepiapterin RRT 1.00 (amount of sepiapterin) [1, 13]: 99.42%
Impurity RRT 0.60 ([1]; RT/10% RH, 4 w): <0.05
Impurity RRT 1.08 ([1]; RT/10% RH, 4 w): <0.05
Impurity RRT 1.17 ([1]; RT/10% RH, 4 w): 0.16
Impurity RRT 0.95 [1, 14]: 0.30
Sepiapterin RRT 1.00 (amount of sepiapterin) [1, 14]: 99.54%
stability compared with polymorph A (in words) [1]: significantly greater stability
physical form stability to grinding and sieving [2]: confirms the stability
% of Initial ([3]; 35° C., 10% RH, storage 1 week): 99.7%
Purity (area %) ([3]; 35° C., 10% RH, storage 1 week): 99.4 area %
% of Initial [3, 15]: 99.7%
Purity (area %) [3, 15]: 99.4 area %
% of Initial ([3]; 50° C., 10% RH, storage 1 week): 99.4%
Purity (area %) ([3]; 50° C., 10% RH, storage 1 week): 99.2 area %
% of Initial [3, 16]: 99.1%
Purity (area %) [3, 16]: 98.9 area %
% of Initial ([3]; RT, 10% RH, storage 1 week): 99.7%
Purity (area %) ([3]; RT, 10% RH, storage 1 week): 99.4 area %
% of Initial ([3]; RT, 10% RH, storage 4 weeks): 99.8%
Purity (area %) ([3]; RT, 10% RH, storage 4 weeks): 99.5 area %
Form change ([4]; 35° C., 10% RH, storage 1 week): No
Form change [4, 15]: No
Form change ([4]; 50° C., 10% RH, storage 1 week): No
Form change [4, 16]: No
Form change ([4]; RT, 10% RH, storage 1 week): No
Form change ([4]; RT, 10% RH, storage 4 weeks): No
Compound: C[C@H](O)C(=O)C1=Nc2c(nc(N)[nH]c2=O)NC1 [Form F, sepiapterin]
